# Experiments:
# [1] = target: T1, endogenous cathepsin K in the nucleus of human osteoclast (Homo sapiens, UniProt P43235); assay: Fluorescence microscopy of nuclear CTSK inhibition (GD32 probe); assay type: cell-based; conditions: 3 μM, 2 h, then GD32 8 h
# T1 construct: endogenous in cells; host or cells: primary human osteoclasts differentiated from blood monocytes with M-CSF and RANKL
# T1 sequence (P43235 115-329): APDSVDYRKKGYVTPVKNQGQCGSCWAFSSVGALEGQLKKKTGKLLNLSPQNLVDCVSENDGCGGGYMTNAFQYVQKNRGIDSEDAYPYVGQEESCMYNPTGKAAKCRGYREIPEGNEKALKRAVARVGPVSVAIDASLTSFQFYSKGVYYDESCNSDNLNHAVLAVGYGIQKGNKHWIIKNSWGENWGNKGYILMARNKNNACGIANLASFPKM
# Source text: We have generated inhibitors that block nuclear CTSK activity for the first time. […] CTSK activity labeled by a specific fluorescence ABP, GD32, was detected in the nucleus and nucleoli of osteoclasts, as reported by Dey et al.[19] The CTSK nuclear signal was completely eliminated in the presence of the inhibitors (Figure 9). These inhibitors can facilitate studying CTSK nuclear activity.
# Figure 9 Detection of inhibition of endogenous cathepsin K in the nucleus of human osteoclast by fluorescence microscopy. (a) Osteoclast cells were treated with GD20 or GD38 inhibitors [3 μM] or DMSO vehicle in culture medium for 2 h, followed by incubation with GD32 for 8 h, as shown in Figure 8a. Cells were then fixed and stained with DAPI (nucleus), and Z stack images were captured by confocal microscopy. The white arrows indicate the nucleus. […] Red fluorescence is CTSK activity labeled by the ABP (GD32) and blue fluorescence (DAPI). (b) Microscopy image analysis software Imaris 10.0.1 was used to produce a three-dimensional (3D) surface rendering image of a cell nucleus (transparent blue) and CTSK inside it (opaque red) on top of the original image (blue, DAPI; red, GD32). The thresholds for the surfaces were chosen to emphasize CTSK inside the nucleus. One nucleus for each treatment was chosen from pictures in (a). […]
# CTSB = target: T2, CTSB (Homo sapiens, UniProt P07858); assay: Kinetic evaluation of recombinant cathepsin inhibition, fluorogenic substrate Z-FR-AMC; assay type: biochemical
# T2 construct: made in house
# Procedure: (§1) Cathepsin (0.4 nM, CatK) or 5 nM (CatS, CatB, and CatL) were each mixed with inhibitors before adding the fluorogenic substrate. The proteases were then reacted with their substrates, Z-RR-AMC (CatL) or Z-FR-AMC (CatS, CatB, and CatK), for 30 min at 37 °C in the phosphate buffer (100 mM Na2HPO4/NaH2PO4, 50 mM NaCl, 5 mM DTT, 0.1% PEG-6000, at pH 6). Reactions were done in 96-well black flat-bottom microplates (Greiner, Germany); fluorescence (Ex/Em 370 and 460 nm) was measured by a Tecan INFINITE M1000 pro plate reader (Tecan, Switzerland) in the presence of inhibitors or vehicle. For irreversible inhibitors, reaction data were analyzed by using the one-phase association formula in GraphPad Prism 9 software: Y = Y0 + (plateau – Y0) × (1 – exp(−K × X)), where Y0 and Y denote the fluorescence signals at times 0 and t, respectively, K represents the observed reaction rate kobs, and X signifies the […]. The inactivation rates at each inhibitor concentration were determined by subtracting the inactivation observed in the control sample: kobs – kctrl. The maximum inactivation rate (kinact) was derived as the asymptote from the equation Y = kinact × X/(Ki^app + X), where X represents the inhibitor concentration, Y is the observed inactivation rate for each X, and Ki^app is the apparent inhibition constant. Ki values were derived from IC50 or Ki^app using the equations Ki = Ki^app/(1 + […]) and IC50 = E0/2 + Ki^app, where Km represents the Michaelis–Menten constant, S denotes substrate concentration, and E0 indicates cathepsin concentration. The maximum inhibitor dose in the experiment was 50 μM. Measurements were conducted in multiple independent duplicates. Average values are listed.
# CTSL = target: T3, CTSL (Homo sapiens, UniProt P07711); assay: Kinetic evaluation of recombinant cathepsin inhibition, fluorogenic substrate Z-RR-AMC; assay type: biochemical
# T3 construct: made in house
# T3 sequence (P07711 114-333): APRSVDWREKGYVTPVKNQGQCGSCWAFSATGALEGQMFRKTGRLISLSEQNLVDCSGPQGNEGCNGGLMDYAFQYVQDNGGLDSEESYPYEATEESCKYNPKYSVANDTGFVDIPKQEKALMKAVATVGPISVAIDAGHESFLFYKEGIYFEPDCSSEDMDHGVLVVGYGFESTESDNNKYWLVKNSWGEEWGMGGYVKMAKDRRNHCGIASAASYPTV
# Procedure: as §1
# [2] = target: T4, endogenous cathepsin K in human osteoclasts (Homo sapiens, UniProt P43235); assay: Fluorescence microscopy of CTSK inhibition in human osteoclasts; assay type: cell-based; conditions: human OC, 3 μM, 2 h; for fluorescence signal of pan-cathepsin probe GB123: then GB123 2 h; for CTSK activity labeled by GD32 probe: then GD32 8 h
# T4 construct: endogenous in cells; host or cells: primary human osteoclasts differentiated from blood monocytes with M-CSF and RANKL
# T4 sequence (P43235 115-329): T1 sequence (P43235 115-329)
# Procedure: We next corroborated CTSK-specific inhibition by fluorescence microscopy studies of OC. Human OC were grown on 8-well plates; the intact cells were treated with either of the CTSK inhibitors or with the vehicle and then with the CTSK-specific fluorescent ABP GD32.[19] The fluorescence microscopy pictures were acquired following cell fixation, which permitted imaging and evaluating CTSK activity and inhibition in cells. […] As the inhibitors are specific to CTSK, they could not block the fluorescence signals of GB123 associated with other cathepsins (B, L, S) (Figure 8b).
# Figure 8 Detection of inhibition of endogenous cathepsin K in intact cells by fluorescence microscopy. Enriched human monocytes from peripheral blood mononuclear cells (PBMC) were isolated from healthy donors’ blood and were treated for 14 days with M-CSF and RANKL or M-CSF alone, as indicated. Osteoclast cells were treated with vehicle (DMSO) or indicated inhibitors [3 μM] in a culture medium for 2 h, followed by incubation with (a) GD32 (a specific CTSK ABP) for 8 h or (b) GB123 for 2 h. Similar to those described in panel (a), cultures of U2-OS cells (c) and U-87 MG cells (d) were grown in 8-well chambers. Cells were pretreated with either the DMSO or [3 μM] of indicated specific CTSK inhibitors for 2 h and then labeled by the addition of 1.25 μM GD32 to the culture medium for 24 h (U2-OS) or 2 h (U-87 MG). After fixation, cells were stained with 4′,6-diamidino-2-phenylindole (DAPI) (nucleus), and images were captured by confocal microscopy.
# Cells were seeded in 8-well chambers and then treated with an inhibitor or vehicle for 2 h. Cells were then labeled with the indicated probes for the indicated times and then washed with PBS, fixed with cold methanol, and mounted with DAPI-Fluoromount-G (SouthernBiotech, 0100-20) before visualization by confocal microscopy. Zeiss Confocal LSM 980 Microscope with Zen software was used with Airyscan (Germany).
Structure (SMILES),nuclear CTSK activity labeled by GD32 [1],Ki (CTSB; maximum inhibitor dose 50 μM),Ki (CTSL; maximum inhibitor dose 50 μM),fluorescence signal of pan-cathepsin probe GB123 [2],CTSK activity labeled by GD32 probe [2],"type of inhibition, CTSB (CTSB)",Ki (CTSB; irreversible inhibitor),"kinact (CTSB; read-out: kinact (at 50 μM), CTSB)","type of inhibition, CTSL (CTSL)",Ki (CTSL; irreversible inhibitor),"kinact (CTSL; read-out: kinact (at 50 μM), CTSL)"
CC(C)C[C@H](N[C@@H](c1ccc(-c2ccc(S(C)(=O)=O)cc2)cc1)C(F)(F)F)C(=O)NCC(=O)COC(=O)[C@@H]1CCCN1C(=O)[C@H](CC(C)C)NC(=O)OCC1c2ccccc2-c2ccccc21 [GD20],block CTSK activity in the nucleolus,> 50 µM,> 50 µM,only a partial reduction,completely abolished CTSK activity,–,–,–,–,–,–
CC(C)C[C@H](N[C@@H](c1ccc(-c2ccc(S(C)(=O)=O)cc2)cc1)C(F)(F)F)C(=O)NCC(=O)COC(=O)[C@@H]1CCCN1C(=O)[C@H](CCC(N)=O)NC(=O)OCC1c2ccccc2-c2ccccc21 [GD38],block CTSK activity in the nucleolus,–,–,only a partial reduction,completely abolished CTSK activity,irreversible,> 50 µM,0.0072 s⁻¹,irreversible,> 50 µM,0.0045 s⁻¹

# Source: article PMC11938014, “Development and Application of Small Molecule–Peptide Conjugates as Cathepsin K-Specific Covalent Irreversible Inhibitors in Human Osteoclast and Lung Cancer” (JACS Au, 2025)
